Measured values reported in PMC2228596 (The Journal of General Physiology, 1980).
Read-outs that look alike come from different tables or passages of the source.

How the values were obtained:
[1] = tested on: Na+ channels in rat brain synaptosomes; assay: Synaptosome membrane potential; assay type: cell-based
[2] = tested on: Na+ channels in rat brain synaptosomes; assay type: cell-based
[3] = tested on: Na+ channels, neuroblastoma cells; settings: ref Catterall (1977 b); cited from earlier work
[4] = tested on: voltage-dependent Na+ channels in excitable membranes; settings: cited from earlier work; for Effect on kinetics of activation and inactivation of Na+ channels: electrophysiology, Khodorov et al.; for Effect on kinetics of activation and inactivation of Na+ channels / Use dependence of activator effects: ref Ulbricht, 1969; for Use dependence of activator effects: intact nerve preparations, Albuquerque et al., Bartels-Bernal et al., 1977, Revenko; for Opening of Na+ channels: Catterall
[5] = tested on: Na+ channels in synaptosomes; settings: cited from earlier work; for Synaptosome depolarization: ref VER: Goldring and Blaustein, BTX: Krueger and Blaustein, 1978
[6] = ref Albuquerque et al., 1973, 1975
[7] = ref Narahashi and Seyama, 1974, 1977 b

COc1ccc(C(=O)O[C@H]2CC[C@@]3(C)[C@@H]4CC[C@H]5[C@]6(O)C[C@H](O)[C@@]7(O)[C@@H](CN8C[C@@H](C)CC[C@H]8[C@@]7(C)O)[C@]6(O)C[C@@]53O[C@]24O)cc1OC [VER, veratridine]
Time to complete depolarizing effect ([1]; data not shown): up to 5 min | Depolarization relative to maximally effective BTX or 150 mM K+ (ΔF = 100%) ([1]; highest concentration tested, 300 μM VER, no LqTX): 50-60% | Maximal effect of VER on Na+ uptake with LqTX ([2]; 0.1 μM LqTX): increased in the presence of LqTX to the same level observed in the presence of 10 ~M BTX | Na+ uptake at maximally effective VER with AxTX ([2]; 1 μM AxTX): increased in the presence of AxTX | Preference of binding to open over nonopen states [3]: ~ 600 times | Effect on kinetics of activation and inactivation of Na+ channels [4]; 1975: alter the kinetic properties of the rapid, voltage-sensitive activation and inactivation of Na + channels | Use dependence of activator effects [4]; 1973: use dependent | Opening of Na+ channels [4, 6]: open TTX-sensitive Na + channels | Release of neurotransmitters from synaptosomes ([5]; ref Blaustein, 1975, Cotman et al., 1976): VER-stimu- lated release of neurotransmitters | Ca2+ uptake into synaptosomes ([5]; ref Blaustein, 1975, Nachshen and Blaustein, 1979): VER-stimulated Ca2+ uptake | Uptake of Na+ into synaptosomes ([5]; ref Li and White (1977), Matthews et al. (1979)): VER-stimulated, TTX-sensitive uptake of Na + into synaptosomes | Synaptosome depolarization [5]; 1975: induced synaptosome depolarization

CCN1C[C@]2(COC)[C@H](O)C[C@H](OC)[C@@]34[C@@H]5C[C@@]6(O)[C@H](OC(=O)c7ccccc7)[C@@H]5[C@@](OC(C)=O)([C@@H]([C@H](OC)[C@H]23)[C@@H]14)[C@@H](O)[C@@H]6OC [aconitine]
Opening of Na+ channels [4, 7]: open Na + channels

COC(=O)[C@@H]1[C@H]2C[C@H]3c4[nH]c5ccccc5c4CCN3C[C@@H]2CC[C@@H]1O [yohimbine]
Antagonism of Na+ channel openers ([4]; ref Huang et al., 1978): competitive antagonist of these agents

Grayanotoxin
Opening of Na+ channels [4, 7]: open Na + channels

anthopleurin-A [AxTX]
Potentiation of BTX by AxTX ([2]; 1 μM AxTX): potentiated the effects of BTX without itself greatly increasing Na + uptake | Potentiation of VER by AxTX ([2]; 1 μM AxTX): potentiated the effects of VER | Effect of AxTX alone on Na+ uptake ([2]; absence of VER or BTX): small increase in Na + uptake

batrachotoxin [BTX]
Fluorescence increase in low-Na medium ([1]; 30 μM BTX, 140 Ch + 5 Na + 5 K, data not shown): same amount as did increasing the external K concentration from 5 to 8 mM | Time to complete depolarizing effect ([1]; data not shown): up to 5 min | Maximal depolarization, ΔF (% of 150 mM K+) ([1]; maximally effective concentration of BTX, no LqTX): 100% | Effect of BTX >0.3 μM in presence of LqTX ([2]; 0.1 μM LqTX): slightly inhibitory | BTX-stimulated 22Na influx during the second s of incubation ([2]; 10 μM BTX): slightly less than that during the first s | Na+ concentration up to which BTX-stimulated uptake is proportional to Na+ ([2]; 10 μM BTX, 2 s uptake, 2.5-30 mM Na+): up to 5 mM | Na+ uptake rate ([2]; 10 μM BTX, 5 min at 30°C, 5 mM Na+): ~ 1 nmol s-1 mg-1 | Maximal Na+ uptake by BTX without vs with LqTX ([2]; each of three experiments): slightly greater in the absence than in the presence of LqTX | Time to isotopic equilibrium ([2]; presence of 10 μM BTX, 30°C): about 5 s | Effect on kinetics of activation and inactivation of Na+ channels [4]; 1975: alter the kinetic properties of the rapid, voltage-sensitive activation and inactivation of Na + channels | Use dependence of activator effects [4]; 1973: use dependent | Opening of Na+ channels [4, 6]: open TTX-sensitive Na + channels | Synaptosome depolarization [5]; 1975: induced synaptosome depolarization
